One experiment has as its system pancreatic tissue. Description: Histopathological evaluation of pancreas (H&E). The class given is in vivo. The note with it: diabetic rats, after treatment. An excerpt: After treatment, the organs (liver and pancreas) of the rats were collected for histopathological evaluation. […] To collect the tissue at the end of the treatment time, animals were sacrificed under anesthetic conditions. These tissues were washed with phosphate-buffered saline (PBS) and fixed in 10% formalin (Tissue processing station-Tissue Teck VIP 5). The collected samples were properly stored under normal room temperature and were cut/sliced using a semiautomated microtome (Accu-Cut SRM system) into a few small pieces of 3-5 mm from each sample tissue and were separately embedded in paraffin blocks. These sliced tissues were mounted on the glass slides and were properly fixed on the glass slide with a hot plate. After this xylene was used to remove the paraffin from the tissues and was rehydrated by using a series of graded ethanol dilutions, 100%, 90%, and 70%. The rehydrated tissue sections were stained with hematoxylin and eosin (H&E) and were examined using light microscopy to determine the architecture and proportions of islet and acinar cells in the pancreas and hepatocytes in the liver. […] In the control group, acinar and islet cells are seen in the pancreas in normal proportions. The acinar cells are arranged in lobules and are stained darkly with prominent nuclei. The islet cells are embedded within the acinar cells and surrounded by a fine capsule (FIG. 19A). […]

Experiment [1] relates to diabetic animals. Description: Non fasting blood glucose levels during 28 days. It counts as in vivo, rats. The note with it: standard insulin group. The protocol: Non fasting blood glucose levels were measured for all the groups during the 28 days.
Experiment [2] can be described thus: Body weight during 28 days. The note with it: rat, in vivo. Also on record: species or system rats.
In the next experiment the test system is liver tissue. The experiment can be described thus: Histopathological evaluation of liver (H&E). It counts as in vivo. The note with it: diabetic rats, after treatment. An excerpt: After treatment, the organs (liver and pancreas) of the rats were collected for histopathological evaluation. […] To collect the tissue at the end of the treatment time, animals were sacrificed under anesthetic conditions. These tissues were washed with phosphate-buffered saline (PBS) and fixed in 10% formalin (Tissue processing station-Tissue Teck VIP 5). The collected samples were properly stored under normal room temperature and were cut/sliced using a semiautomated microtome (Accu-Cut SRM system) into a few small pieces of 3-5 mm from each sample tissue and were separately embedded in paraffin blocks. These sliced tissues were mounted on the glass slides and were properly fixed on the glass slide with a hot plate. After this xylene was used to remove the paraffin from the tissues and was rehydrated by using a series of graded ethanol dilutions, 100%, 90%, and 70%. The rehydrated tissue sections were stained with hematoxylin and eosin (H&E) and were examined using light microscopy to determine the architecture and proportions of islet and acinar cells in the pancreas and hepatocytes in the liver. […] These cords of hepatocytes are separated by narrow intervening sinusoids lined by endothelial cells and Kupffer cells. No inflammatory cells are seen (FIG. 20A).

The subject of experiment [3] is diabetic animals. The experiment can be described thus: Long-term effect on fasting blood glucose over 28 days. The class given is in vivo, rats. The note with it: standard insulin treated group.

As to “standard insulin: standard insulin dose used as the comparison treatment group in diabetic rats”, the Pancreatic histology result with pancreatic tissue was “the pancreatic histology is similar to that of the diabetic control”. Further, in the experiment with diabetic animals [1], the “Non fasting blood glucose level at day 1” value is 487 mg/dL and the “Non fasting blood glucose level at day 28” value is 371 mg/dL. Also, in experiment [2], the “Body weight at day 28 compared to the weight at day 21” value is “significant (p=<0.001) improvement” and the “Improvement in body weight compared to diabetic control group” value is on record as “significant (p=<0.0001)”. The Liver histology result in the experiment on liver tissue was “the liver histology shows mostly a normal lobular architecture with normal cords of hepatocytes with intervening patent sinusoids with focal congestion with only occasional hepatocytes showing degenerative changes and no inflammation is seen”. In the experiment on diabetic animals [3], the “Fasting blood glucose level, initial” value came to 433 mg/dL. The “Fasting blood glucose level, reduced” value in the experiment with diabetic animals [3] (p=<0.001) came to 371 mg/dL.

(Values after patent US12280125B2 (Imam Abdulrahman Bin Faisal University, priority 2022, dated 2025).)
